“Also recorded” adds a separate entry of the source.
test system: Mfn2 null MEFs; test: Mitochondrial elongation (aspect ratio) fusogenicity assay; type: cell-based, mouse; set-up: % long compare to B: dose or concentration left out as unconfirmed; details: mitochondrial elongation / fusion

Q: How did the “Fusogenic activity” value turn out when `O=C1CC(SCCc2nc3ccccc3[nH]2)C(=O)N1c1cccc(F)c1` (stereo not drawn) [D9, 3-{[2-(1H-1,3-benzodiazol-2-yl)ethyl]sulfanyl}-1-(3-fluorophenyl)pyrro-lidine-2,5-dione] was run?
A: failed validation in the secondary screen; also recorded: showed no true fusogenic activity

same assay, conditions: mitochondrial elongation relative to Cpd B (B01 = 100); Mfn2 null MEFs, compound overnight as printed (FIG. 48)

Q: How did the “% long compare to B” value turn out when `NC(=O)c1c(NC(=O)CSc2ccccc2)sc2c1CCC2` [B2, 2-[2-(phenylsulfanyl)acetamido]-4H,5H,6H-cyclopenta[b]thiophene-3-carboxamide] was run?
A: 12%

Q: With `CC(Sc1nnc(N2CCOCC2)n1Cc1ccccc1)C(=O)Nc1ccc2[nH]c(=O)[nH]c2c1` (stereo not drawn) [B03, 2-{[4-benzyl-5-(morpholin-4-yl)-4H-1,2,4-triazol-3-yl]sulfanyl}-N-(2-oxo-2,3-dihydro-1H-1,3-benzodiazol-5-yl)propanamide] as the molecule, how does the “% long compare to B” value read?
A: 39%

Q: Which “% long compare to B” value does the source give for `S=C(NCCSCc1ccco1)NC1CC2CCC1C2` (stereo not drawn) [B04, 1-{bicyclo[2.2.1]heptan-2-yl}-3-(2-{[(furan-2-yl)methyl]sulfanyl}ethyl)thiourea] here?
A: 9%

Q: `CC(Sc1nnc(C2CC2)n1Cc1ccccc1)C(=O)Nc1sccc1C(N)=O` (stereo not drawn) [B4, 2-{2-[(4-benzyl-5-cyclopropyl-4H-1,2,4-triazol-3-yl)sulfanyl]propanamido}thiophene-3-carboxamide] was tested. Which “% long compare to B” value did it give?
A: 4%

Q: How did the “% long compare to B” value turn out when `CC(C)(C)NC(=O)NC(=O)COC(=O)CSCc1nc2scc(-c3ccccc3)c2c(=O)[nH]1` [B07, 2-[(tert-butylcarbamoyl)amino]-2-oxoethyl 2-[({4-oxo-5-phenyl-3H,4H-thieno[2,3-d]pyrimidin-2-yl}methyl)sulfanyl] acetate] was run?
A: 64%

Q: With `Cc1ccc(-c2noc(CSCCCC(=O)Nc3c(C)cccc3C)n2)cc1F` [B08, N-(2,6-dimethylphenyl)-4-({[3-(3-fluoro-4-methylphenyl)-1,2,4-oxadiazol-5-yl]methyl}sulfanyl)-butanamide] as the molecule, how does the “% long compare to B” value read?
A: 12%

Q: `O=C(NCCSCc1ccc(Br)s1)C1CCCN(C(=O)c2cccs2)C1` (stereo not drawn) [B09, N-(2-{[(5-bromothiophen-2-yl)methyl]sulfanyl}-ethyl)-1-(thiophene-2-carbonyl)piperidine-3-carboxamide] was tested. Which “% long compare to B” value did it give?
A: 36%

Q: How did the “% long compare to B” value turn out when `Cc1cccc(C)c1NC(=O)CCCSCc1ncc(C(C)C)o1` [B10, N-(2,6-dimethylphenyl)-4-({[5-(propan-2-yl)-1,3-oxazol-2-yl]methyl}sulfanyl)-butanamide] was run?
A: 6%

Q: `O=C(NCCSCc1ccsc1)C1CC2CCCC(C1)C2=O` (stereo not drawn) [B11, 9-oxo-N-(2-{[(thiophen-3-yl)methyl]sulfanyl}-ethyl)bicyclo[3.3.1]-nonane-3-carboxamide] was tested. Which “% long compare to B” value did it give?
A: 23%

Q: `Cc1ccc(-n2c(SC(C)C(=O)Nc3ccnn3C(C)C)nnc2N2CCOCC2)cc1` (stereo not drawn) [C01, 2-{[4-(4-methylphenyl)-5-(morpholin-4-yl)-4H-1,2,4-triazol-3-yl]sulfanyl}-N-[1-(propan-2-yl)-1H-pyrazol-5-yl]propanamide] was tested. Which “% long compare to B” value did it give?
A: 16%

Q: How did the “% long compare to B” value turn out when `CCCc1noc(C(C)Sc2nc3cc(C)ccc3[nH]2)n1` (stereo not drawn) [C02, 5-methyl-2-{[1-(3-propyl-1,2,4-oxadiazol-5-yl)ethyl]sulfanyl}-1H-1,3-benzodiazole] was run?
A: 14%

Q: For `COc1ccc(SC(C)C(=O)Nc2cc[nH]n2)cc1` (stereo not drawn) [C03, 2-[(4-methoxyphenyl)sulfa-nyl]-N-(1H-pyrazol-3-yl)propanamide], which “% long compare to B” value is on record?
A: 10%

Q: For `CCC(C)C1N=C2c3ccccc3N=C(SC(C)C(=O)Nc3cc(OC)cc(OC)c3)N2C1=O` (stereo not drawn) [C04, 2-{[2-(butan-2-yl)-3-oxo-2H,3H-imidazo[1,2-c]quinazolin-5-yl]sulfanyl}-N-(3,5-dimethoxyphenyl)pro-panamide], which “% long compare to B” value is on record?
A: −1%

Q: How did the “% long compare to B” value turn out when `O=C(CSCCc1ccccn1)Nc1ccc(Cl)c(Cl)c1` [C06, N-(3,4-dichlorophenyl)-2-{[2-(pyridin-2-yl)ethyl]sulfanyl}-acetamide] was run?
A: −8%

Q: Which “% long compare to B” value does the source give for `O=C(CSCc1ccc(F)cc1)N1CCc2c([nH]c3ccccc23)C1c1ccc(Cl)cc1` (stereo not drawn) [C07, 1-[1-(4-chlorophenyl)-1H,2H,3H,4H,9H-pyrido[3.4-b]indol-2-yl]-2-{[(4-fluorophenyl)methyl]sulfanyl}ethan-1-one] here?
A: 29%

Q: `Cc1ccc(C(C)C)c(OCCCSCc2nc3ccccc3[nH]2)c1` [C09, 2-[({3-[5-methyl-2-(propan-2-yl)phenoxy]propyl}-sulfanyl)methyl]-1H-1,3-benzodiazole] was tested. Which “% long compare to B” value did it give?
A: −5%

Q: How did the “% long compare to B” value turn out when `CC(/N=N/C(=N)SC1CC(=O)N(c2cccc(C(=O)O)c2)C1=O)c1ccccc1` (stereo not drawn) [C10, 3-(2,5-dioxo-3-{[(E)-N-[(1-phenylethyl)imino]car-bamimidoyl]sul-fanyl}pyrrolidin-1-yl)benzoic acid] was run?
A: 0%

Q: For `Cc1ccc(NC(=O)CC2SC(NC(c3ccc(C(C)C)cc3)c3c(O)[nH]c(=O)[nH]c3=O)=NC2=O)c(C)c1` (stereo not drawn) [C11, N-(2,4-dimethylphenyl)-2-(2-{[(6-hydroxy-2,4-dioxo-1,2,3,4-tetrahydropyrimidin-5-yl)[4-(propan-2-yl)phenyl]methyl]am-ino}-4-oxo-4,5-dihydro-1,3-thiazol-5-yl)acetamide], which “% long compare to B” value is on record?
A: −4%

Q: For `CCOc1ccccc1NC(=O)CSCc1cc(=O)c2ccc(C)c(C)c2[nH]1` [D01, 2-{[(7,8-dimethyl-4-oxo-1,4-dihydroquinolin-2-yl)methyl]sulfanyl}-N-(2-ethoxyphenyl)acetamide], which “% long compare to B” value is on record?
A: 9%

Q: For `Cc1ccc(C(=O)C(C)Sc2nnc3c(=O)n(-c4ccc(C)c(C)c4)ccn23)cc1C` (stereo not drawn) [D02, 7-(3,4-dimethylphenyl)-3-{[1-(3,4-dimethylphenyl)-1-oxopropan-2-yl]sulfanyl}-7H,8H-[1,2,4]triazolo[4,3-a]pyrazin-8-one], which “% long compare to B” value is on record?
A: 13%

Q: Which “% long compare to B” value does the source give for `O=C(CSCC(=O)N1CCCc2ccccc21)Nc1ccccc1` [D03, 2-{[2-oxo-2-(1,2,3,4-tetrahydroquinolin-1-yl)ethyl]sulfanyl}-N-phenylacetamide] here?
A: −17%

Q: For `CCOC(=O)c1sc(NC(=O)C(CC)Sc2nnc3c(n2)[nH]c2ccccc23)nc1C` (stereo not drawn) [D04, ethyl 4-methyl-2-(2-{5H-[1,2,4]triazino[5,6-b]indol-3-ylsulfanyl}butanamido)-1,3-thiazole-5-carboxylate], which “% long compare to B” value is on record?
A: 24%

Q: How did the “% long compare to B” value turn out when `COc1ccc2c(c1)C1(SCCN1C(=O)c1ccccc1C)C(=O)N2Cc1cccc(C(F)(F)F)c1` (stereo not drawn) [D05, 5-methoxy-3′-(2-methylbenzoyl)-1-{[3-(trifluoromethyl)-phenyl]methyl}-1,2-dihydrospiro[indole-3,2′-[1,3]thiazolidine]-2-one] was run?
A: 4%

Q: How did the “% long compare to B” value turn out when `O=C(NCCSCc1cccc(Cl)c1)C1CCCCn2nnnc21` (stereo not drawn) [D07, N-(2-{[(3-chlorophenyl)methyl]-sulfanyl}ethyl)-5H,6H,7H,8H,9H-[1,2,3,4]tetrazolo[1,5-a]azepine-9-carboxamide] was run?
A: −6%

Q: `COc1ccc(OCc2nnc(SC(C)C(=O)Nc3sc4c(c3C(N)=O)CCC4)n2C)cc1` (stereo not drawn) [D8, 2-[2-({5-[(4-methoxyphenoxy)-methyl]-4-methyl-4H-1,2,4-triazol-3-yl}sulfanyl)propana-mido]-4H,5H,6H-cyclopenta[b)thiophene-3-carboxamide] was tested. Which “% long compare to B” value did it give?
A: −1%

Q: For `Cc1cc(C)n2nc(C(=O)N3C[C@@H]4CCN(Cc5nccn5C)[C@@H]4C3)cc2n1` [D08, 2-{[(3aS,6aS)-5-{5,7-dimethylpyrazolo[1,5-a]pyrimidine-2-carbonyl}-octahydropyrrolo[3,4-b]pyrrol-1-yl]methyl}-1-methyl-1H-imidazole], which “% long compare to B” value is on record?
A: 114%
